{"source": "patent US10821118B2", "about": "“Oral transmucosal drug delivery system” (ABON PHARMACEUTICALS, LLC, priority 2012, dated 2020)", "key": {"[1]": {"test": "Heat of fusion of testosterone by DSC, molten / heat treated testosterone-agent samples", "format": "physicochemical", "details": "pure crystalline testosterone, at melting point of about 150° C.", "description": "The heat of fusion (ΔHf) can be measured via Differential Scanning calorimetry (DSC).\nTalc is an inert purified hydrated magnesium silicate with a melting point of 1500° C."}, "[2]": {"test": "Testosterone solubility in aqueous media (SSF) containing various CIAs", "format": "physicochemical", "details": "Simulated Saliva Fluid (SSF) containing CIA, thermodynamic from solid, Solubility of Testosterone in CIA Containing SSF", "description": "Then the sample was filtered through a 0.45 μm polyvinylidene fluoride (PVDF) and the filtrate was analyzed by HPLC."}, "[3]": {"test_system": "Sex Hormone Binding Globulin (SHBG), albumin", "details": "cited from earlier work"}, "[4]": {"test": "Solubility of crystalline drug in water", "details": "37 °C"}, "[5]": {"test": "Solubility of testosterone in molten CIA systems", "quoted_text": "In each solubility study, a molten solvent of single or combination CIA was prepared by heating and melting the CIA system using a water bath. […] The melt suspension was mixed for at least another 30 minutes while maintaining the CIA's molten state."}}, "data": [{"smiles": "C[C@]12CC[C@H]3[C@@H](CCC4=CC(=O)CC[C@@]43C)[C@@H]1CC[C@@H]2O", "note": "[Testosterone]", "values": [{"measurement": "heat of fusion (ΔHf)", "setting": "[1]", "value": "about 102.4 J/g"}, {"measurement": "solubility", "setting": "[2]; aqueous with cosolvent or surfactant or cyclodextrin, SSF with 0.25% vitamin E-TPGS", "value": 0.0608, "unit": "mg/mL"}, {"measurement": "solubility", "setting": "[2]; aqueous with cosolvent or surfactant or cyclodextrin, SSF with 0.5% vitamin E-TPGS", "value": 0.0901, "unit": "mg/mL"}, {"measurement": "solubility", "setting": "[2]; aqueous with cosolvent or surfactant or cyclodextrin, SSF with 5% lauroyl polyoxyl-32 glycerides", "value": 0.358, "unit": "mg/mL"}, {"measurement": "solubility", "setting": "[2]; aqueous with cosolvent or surfactant or cyclodextrin, SSF with 5% oleic acid (oleic acid itself not soluble in SSF)", "value": 0.027, "unit": "mg/mL"}, {"measurement": "solubility", "setting": "[2]; aqueous with cosolvent or surfactant or cyclodextrin, SSF with 5% polyethylene glycol", "value": 0.032, "unit": "mg/mL"}, {"measurement": "solubility", "setting": "[2]; aqueous with cosolvent or surfactant or cyclodextrin, SSF with 5% vitamin E-TPGS", "value": 0.6, "unit": "mg/mL"}, {"measurement": "solubility", "setting": "[2]; aqueous with cosolvent or surfactant or cyclodextrin, SSF with 10% lauroyl polyoxyl-32 glycerides", "value": 0.694, "unit": "mg/mL"}, {"measurement": "solubility", "setting": "[2]; aqueous with cosolvent or surfactant or cyclodextrin, SSF with 10% oleic acid (oleic acid itself not soluble in SSF)", "value": 0.029, "unit": "mg/mL"}, {"measurement": "solubility", "setting": "[2]; aqueous with cosolvent or surfactant or cyclodextrin, SSF with 10% polyethylene glycol", "value": 0.045, "unit": "mg/mL"}, {"measurement": "solubility", "setting": "[2]; aqueous with cosolvent or surfactant or cyclodextrin, SSF with 10% vitamin E-TPGS", "value": 1.21, "unit": "mg/mL"}, {"measurement": "solubility", "setting": "[2]; aqueous with cosolvent or surfactant or cyclodextrin, SSF with 20% lauroyl polyoxyl-32 glycerides", "value": 1.35, "unit": "mg/mL"}, {"measurement": "solubility", "setting": "[2]; aqueous with cosolvent or surfactant or cyclodextrin, SSF with 20% oleic acid (oleic acid itself not soluble in SSF)", "value": 0.029, "unit": "mg/mL"}, {"measurement": "solubility", "setting": "[2]; aqueous with cosolvent or surfactant or cyclodextrin, SSF with 20% polyethylene glycol", "value": 0.0694, "unit": "mg/mL"}, {"measurement": "solubility", "setting": "[2]; aqueous with cosolvent or surfactant or cyclodextrin, SSF with 20% vitamin E-TPGS", "value": 2.25, "unit": "mg/mL"}, {"measurement": "solubility", "setting": "[2]; aqueous with cosolvent or surfactant or cyclodextrin, saturated CIA solution, 0.34 g/mL of lauroyl polyoxyl-32 glycerides in SSF", "value": 2.37, "unit": "mg/mL"}, {"measurement": "solubility", "setting": "[2]; aqueous with cosolvent or surfactant or cyclodextrin, saturated CIA solution, 0.53 g of vitamin E TPGS in SSF", "value": 4.19, "unit": "mg/mL"}, {"measurement": "solubility", "setting": "[2]; aqueous with cosolvent or surfactant or cyclodextrin, saturated CIA solution, 1.73 g/mL of polyethylene glycol in SSF", "value": 1.6, "unit": "mg/mL"}, {"measurement": "solubility", "setting": "[2]; fassgf or other biorelevant, SSF with 0.25% polyethylene glycol", "value": 0.0281, "unit": "mg/mL"}, {"measurement": "solubility", "setting": "[2]; fassgf or other biorelevant, SSF with 0.5% polyethylene glycol", "value": 0.0278, "unit": "mg/mL"}, {"measurement": "protein bound in the blood circulation", "setting": "[3]; blood circulation", "value": 96, "unit": "%"}, {"measurement": "'free'", "setting": "[3]; in males", "value": "2-3%"}, {"measurement": "bound to Sex Hormone Binding Globulin (SHBG)", "setting": "[3]; in males", "value": "about 44%"}, {"measurement": "bound to albumin", "setting": "[3]; in males", "value": 50, "unit": "%"}, {"measurement": "solubility", "setting": "[4]", "value": "~0.027", "unit": "mg/mL"}, {"measurement": "Solubility of Testosterone in CIA, Theoretical", "setting": "[5]; Table 24: PEG 8000 50% / oleic acid 50%", "value": 117.1, "unit": "mg/gm"}, {"measurement": "Solubility of Testosterone in CIA, Actual", "setting": "[5]; Table 24: molten PEG 8000 50% / oleic acid 50%", "value": 136.2, "unit": "mg/gm"}, {"measurement": "Solubility of Testosterone in CIA, Actual", "setting": "[5]; Table 24: molten PEG 8000 50% / vitamin E-TPGS 50%", "value": 137.9, "unit": "mg/gm"}, {"measurement": "Solubility of Testosterone in CIA, Actual", "setting": "[5]; Table 24: molten oleic acid 50% / vitamin E-TPGS 50%", "value": 123.6, "unit": "mg/gm"}, {"measurement": "Solubility of Testosterone in CIA, Actual", "setting": "[5]; Table 24: molten oleic acid 100%", "value": 58.3, "unit": "mg/gm"}, {"measurement": "Solubility of Testosterone in CIA, Actual", "setting": "[5]; Table 24: molten oleic acid 100%, listed as testosterone", "value": "about 58.3 mg/gm"}, {"measurement": "Solubility of Testosterone in CIA, Actual", "setting": "[5]; Table 24: molten polyethylene glycol 8000 100%", "value": 175.9, "unit": "mg/gm"}, {"measurement": "Solubility of Testosterone in CIA, Actual", "setting": "[5]; Table 24: molten polyethylene glycol 8000 100%, listed as testosterone", "value": "about 175.9 mg/gm"}, {"measurement": "Solubility of Testosterone in CIA, Actual", "setting": "[5]; Table 24: molten vitamin E-TPGS 100%", "value": 78.9, "unit": "mg/gm"}, {"measurement": "Solubility of Testosterone in CIA, Actual", "setting": "[5]; Table 24: molten vitamin E-TPGS 100%, listed as testosterone", "value": "about 78.9 mg/gm"}, {"measurement": "Solubility of Testosterone in CIA, Theoretical", "setting": "[5]; Table 25: PEG 8000 50% / lauroyl polyoxyl-32 glycerides 50%", "value": 130.0, "unit": "mg/gm"}, {"measurement": "Solubility of Testosterone in CIA, Theoretical", "setting": "[5]; Table 25: PEG 8000 50% / vitamin E TPGS 50%", "value": 130.6, "unit": "mg/gm"}, {"measurement": "Solubility of Testosterone in CIA, Actual", "setting": "[5]; Table 25: molten PEG 8000 50% / lauroyl polyoxyl-32 glycerides 50%", "value": 129.9, "unit": "mg/gm"}, {"measurement": "Solubility of Testosterone in CIA, Actual", "setting": "[5]; Table 25: molten PEG 8000 50% / vitamin E TPGS 50%", "value": 144.2, "unit": "mg/gm"}, {"measurement": "Solubility of Testosterone in CIA, Actual", "setting": "[5]; Table 25: molten lauroyl polyoxyl-32 glycerides 100%", "value": 81.6, "unit": "mg/gm"}, {"measurement": "Solubility of Testosterone in CIA, Actual", "setting": "[5]; Table 25: molten polyethylene glycol 8000 100%", "value": 178.4, "unit": "mg/gm"}, {"measurement": "Solubility of Testosterone in CIA, Actual", "setting": "[5]; Table 25: molten vitamin E TPGS 50% / lauroyl polyoxyl-32 glycerides 50%", "value": 114.6, "unit": "mg/gm"}, {"measurement": "Solubility of Testosterone in CIA, Actual", "setting": "[5]; Table 25: molten vitamin E TPGS 100%", "value": 82.7, "unit": "mg/gm"}, {"measurement": "Solubility of Testosterone in CIA, Theoretical", "setting": "[5]; Table 25: vitamin E TPGS 50% / lauroyl polyoxyl-32 glycerides 50%", "value": 82.2, "unit": "mg/gm"}, {"measurement": "Solubility of Testosterone in CIA, Actual", "setting": "[5]; […]", "value": 136.6, "unit": "mg/gm"}]}]}
